Earlier results on two compounds are cited in patent publication US11021437B2, “Pharmaceutical formulation for sublingual or buccal delivery of epinephrine or a pro-drug thereof” (Iono Pharma, LLC, priority 2016, dated 2021).

The conditions of data set [1]: 0.01 mg/kg subcutaneously in the deltoid region.
The conditions of data set [2]: in vivo.

Turning to `CNC[C@H](O)c1ccc(O)c(O)c1` [Epinephrine], in data set [1], the “time to maximum plasma epinephrine concentration” value was no more than 34 ± 14 min.

For the compound `CNCC(O)c1ccc(OC(=O)C(C)(C)C)c(OC(=O)C(C)(C)C)c1` (stereo not shown) [Structure 7D, 4-(1-hydroxy-2-(methylamino)ethyl)-1,2-phenylene bis(2,2-dimethylpropanoate)], the “t1/2 hydrolysis in vitro” value is listed as 700 days and the “t1/2 oxidation in vitro” value was 300 days. The “delay before onset of seizure” value in data set [2] is 8 to 10 min.
